Test results published in US20040029968A1, “Nateglinide-containing hydrophilic pharmaceutical preparation” (AJINOMOTO CO. INC, priority 2000, published 2004).

Assay: Contact angle of the preparation surface to water
Type: physicochemical
Settings: flat, smooth tablets prepared from the crystals; water dropped onto the surface
Description: The term “contact angle to water” as employed herein means an angle wherein drops of water to be deposited to the surface of preparation compositions such as tablets and the like contact with said surface, which can be used as an indication of hydrophilic nature. For example, such contact angle is measured by forming 1 μL of droplet of pure water (MILLI-Q; MILLIPORE Co.) on the tip of needle (SNSO 52/026; made from stainless steel, inner diameter of 0.26 mm, outer diameter of 0.52 mm; HAMILTON Co.) and evaluating the contact angle at 60 m sec. after the droplet arrives onto the surface of tablet, using a contact angle measuring device (OCA-15 type; Data Physics Co.). When the surface of tablet has curvature, such contact angle is measured by correcting this curvature to straight line at the time when analysis is conducted. Usually, the contact angle is usually measured at room temperature.
As for preparations of which forms are not tablets, contact angles can be measured after molding powders, granules, semisolids and the like contained in such preparation. For example, in the case of capsules, the contact angle thereof can be determined by removing the contents of capsules and molding 200 mg of the contents into a tablet having diameter of 8 mm and thickness of 3.50 mm and having flat and smooth surface.

contact angle of the surface of tablets to water | SMILES
95 degree | CC(C)[C@H]1CC[C@H](C(=O)N[C@H](Cc2ccccc2)C(=O)O)CC1 [nateglinide B-type crystals, N-(trans-4-isopropylcyclohexanecarbonyl)-D-phenylalanine]
85 degree | CC(C)[C@H]1CC[C@H](C(=O)N[C@H](Cc2ccccc2)C(=O)O)CC1 [nateglinide H-type crystals, N-(trans-4-isopropylcyclohexanecarbonyl)-D-phenylalanine]
